Patent US10626081B2, “Farnesoid X receptor agonists and uses thereof” (Metacrine, Inc., priority 2015, dated 2020)
pEC50: −log10 of the molar value.

target: T1, FXR (Homo sapiens, UniProt Q96RI1); assay: In Vitro FXR Assay (TK): TK-ECRE-luc reporter in transfected CV-1 cells; type: cell-based; settings: CV-1 cells transfected with hFXR, hRXR, 18 h incubation, luminescence
T1 construct: expressed in transfected cells; host or cells: CV-1 cells
T1 sequence (Q96RI1 1-486): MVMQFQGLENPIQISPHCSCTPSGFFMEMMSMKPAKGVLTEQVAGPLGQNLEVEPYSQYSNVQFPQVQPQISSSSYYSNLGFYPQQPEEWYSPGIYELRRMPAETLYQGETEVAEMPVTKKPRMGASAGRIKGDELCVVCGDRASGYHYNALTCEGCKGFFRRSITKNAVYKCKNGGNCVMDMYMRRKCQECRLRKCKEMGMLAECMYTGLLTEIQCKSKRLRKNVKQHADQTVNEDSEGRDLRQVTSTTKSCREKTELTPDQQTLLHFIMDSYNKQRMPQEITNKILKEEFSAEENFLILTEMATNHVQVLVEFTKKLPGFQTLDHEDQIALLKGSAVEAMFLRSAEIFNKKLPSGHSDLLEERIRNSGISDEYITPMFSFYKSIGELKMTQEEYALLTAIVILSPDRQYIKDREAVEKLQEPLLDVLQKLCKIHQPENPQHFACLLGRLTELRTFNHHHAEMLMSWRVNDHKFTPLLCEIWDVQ
T1 sequence (P19793 1-462 partner): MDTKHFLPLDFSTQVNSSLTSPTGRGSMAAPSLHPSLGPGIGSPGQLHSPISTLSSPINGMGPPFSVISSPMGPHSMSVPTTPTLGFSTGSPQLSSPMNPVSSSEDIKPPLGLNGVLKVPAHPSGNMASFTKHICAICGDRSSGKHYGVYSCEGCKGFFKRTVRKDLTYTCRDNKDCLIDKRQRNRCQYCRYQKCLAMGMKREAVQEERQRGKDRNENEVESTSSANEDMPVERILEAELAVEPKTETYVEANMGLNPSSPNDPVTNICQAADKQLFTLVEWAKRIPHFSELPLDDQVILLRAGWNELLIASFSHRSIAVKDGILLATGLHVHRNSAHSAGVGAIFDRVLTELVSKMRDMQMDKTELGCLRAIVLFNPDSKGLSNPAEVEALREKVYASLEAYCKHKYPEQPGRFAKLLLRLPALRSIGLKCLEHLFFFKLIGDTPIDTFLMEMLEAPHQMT
How it was run: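 Luciferase read-out from lysed CV-1 cells exposed 18 h to DMSO-diluted compounds. Cells had been transfected overnight with expression plasmids for hFXR and hRXR plus TK-ECRE-luc reporter and pCMX-YFP, grown in charcoal-stripped serum at 37 °C, 5% CO2.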

Question: How did the pEC50 turn out when `CN(C)c1ccc(-c2ccc(CN(C(=O)C3CCCCC3)c3cccc(/C=C/C(=O)OCc4ccccc4)c3)cc2)cc1` [86.7, (E)-Benzyl 3-(3-(N-((4′-(dimethylamino)-[1,1′-biphenyl]-4-yl)methyl)cyclohexanecarboxamido)phenyl) acrylate] was run?
Answer: < 5.00

Question: How did the pEC50 turn out when `COC(=O)/C=C/c1cc(OC)cc(N(Cc2ccc(-c3ccc(N(C)C)cc3)cc2)C(=O)C2CCCCC2)c1` [86.8, (E)-Methyl 3-(3-(N-((4′-(dimethylamino)-[1,1′-biphenyl]-4-yl)methyl)cyclohexanecarboxamido)-5-methoxyphenyl)acrylate] was run?
Answer: 5.00 to 6.00

Question: How did the pEC50 turn out when `COC(=O)/C=C/c1cc(C#N)cc(N(Cc2ccc(-c3ccc(N(C)C)cc3)cc2)C(=O)C2CCCCC2)c1` [86.9, (E)-Methyl 3-(3-cyano-5-(N-((4′-(dimethylamino)-[1,1′-biphenyl]-4-yl)methyl)cyclohexanecarboxamido)phenyl) acrylate] was run?
Answer: 5.00 to 6.00

Question: With `COC(=O)/C=C/c1cc(Cl)cc(N(Cc2ccc(-c3ccc(N(C)C)cc3)cc2)C(=O)C2CCCCC2)c1` [86.10, (E)-Methyl 3-(3-chloro-5-(N-((4′-(dimethylamino)-[1,1′-biphenyl]-4-yl)methyl)cyclohexanecarboxamido)phenyl) acrylate] as the molecule, how does the pEC50 read?
Answer: ≥ 6.00

Question: With `COC(=O)/C=C/c1cc(N(Cc2ccc(-c3ccc(N(C)C)cc3)cc2)C(=O)C2CCCCC2)cc(C(F)(F)F)c1` [86.11, (E)-Methyl 3-(3-(N-((4′-(dimethylamino)-[1,1′-biphenyl]-4-yl)methyl)cyclohexanecarboxamido)-5-(trifluoromethyl)phenyl)acrylate] as the molecule, how does the pEC50 read?
Answer: 5.00 to 6.00

Question: With `COC(=O)/C=C/c1cccc(N(Cc2ccc(-c3ccc(N(C)C)cc3)cc2)C(=O)[C@H]2CC[C@H](NC(C)=O)CC2)c1` [98.1, trans-(E)-Methyl 3-(3-(4-acetamido-N-((4′-(dimethylamino)-[1,1′-biphenyl]-4-yl)methyl)cyclohexanecarboxamido)phenyl)acrylate] as the molecule, how does the pEC50 read?
Answer: ≥ 6.00

Question: How did the pEC50 turn out when `COC(=O)/C=C/c1cccc(N(Cc2ccc(-c3ccc(N(C)C)cc3)cc2)C(=O)[C@H]2CC[C@H](NS(C)(=O)=O)CC2)c1` [98.2, trans-(E)-Methyl 3-(3-(N-((4′-(dimethylamino)-[1,1′-biphenyl]-4-yl)methyl)-4-(methylsulfonamido)cyclohexane-carboxamido)phenyl)acrylate] was run?
Answer: ≥ 6.00

Question: How did the pEC50 turn out when `COC(=O)/C=C/c1cccc(N(Cc2ccc(-c3ccc(N(C)C)cc3)cc2)C(=O)C(C)(C)C)c1` [compound 1, (E)-Methyl 3-(3-(N-((4′-(dimethylamino)-[1,1′-biphenyl]-4-yl)methyl)pivalamido)phenyl)acrylate] was run?
Answer: 5.00 to 6.00

Question: How did the pEC50 turn out when `COC(=O)/C=C/c1cccc(N(Cc2ccc(-c3ccc(N(C)C)cc3)cc2)C(=O)C2CCC(=O)CC2)c1` [compound 17, (E)-Methyl 3-(3-(N-((4′-(dimethylamino)-[1,1′-biphenyl]-4-yl)methyl)-4-oxocyclohexanecarboxamido)phenyl)acrylate] was run?
Answer: ≥ 6.00

Question: With `COC(=O)/C=C/c1cccc(N(Cc2ccc(-c3ccc(N(C)C)cc3)cc2)C(=O)[C@H]2CC[C@H](NC(=O)OC(C)(C)C)CC2)c1` [compound 96, (E)-Methyl 3-(3-(trans-4-((tert-butoxycarbonyl)amino)-N-((4′-(dimethylamino)-[1,1′-biphenyl]-4-yl)methyl)cyclohexanecarboxamido)phenyl) acrylate] as the molecule, how does the pEC50 read?
Answer: ≥ 6.00

Question: How did the pEC50 turn out when `COC(=O)/C=C/c1cccc(N(Cc2ccc(-c3ccc(N(C)C)cc3)cc2)C(=O)[C@H]2CC[C@H](N)CC2)c1` [compound 97, (E)-Methyl 3-(3-(trans-4-amino-N-((4′-(dimethylamino)-[1,1′-biphenyl]-4-yl)methyl)cyclohexanecarboxamido)phenyl) acrylate] was run?
Answer: < 5.00

Question: `COC(=O)/C=C/c1cccc(N(Cc2ccc(-c3ccc(N(C)C)cc3)cc2)C(=O)[C@H]2CC[C@H](NC(=O)OC)CC2)c1` [compound 98, (E)-Methyl 3-(3-(trans-N-((4′-(dimethylamino)-[1,1′-biphenyl]-4-yl)methyl)-4-((methoxycarbonyl)amino)cyclo-hexanecarboxamido)phenyl)acrylate] was tested. Which pEC50 did it give?
Answer: ≥ 6.00

Question: How did the pEC50 turn out when `CC(C)=CCc1cccc(N(Cc2ccc(-c3ccc(N(C)C)cc3)cc2)C(=O)C2CCCCC2)c1` [compound 99, N-((4′-(Dimethylamino)-[1,1′-biphenyl]-4-yl)methyl)-N-(3-(3-methylbut-2-en-1-yl)phenyl) cyclohexanecarboxamide] was run?
Answer: < 5.00

Question: `COC(=O)/C=C/c1cccc(N(Cc2ccc(NC(=O)c3ccccc3)cc2)C(=O)C2CCCCC2)c1` [compound 100, (E)-Methyl 3-(3-(N-(4-benzamidobenzyl)cyclohexanecarboxamido)phenyl)acrylate] was tested. Which pEC50 did it give?
Answer: 5.00 to 6.00

Question: `COC(=O)/C=C/c1cccc(N(Cc2ccc(N(C)C(=O)c3ccccc3)cc2)C(=O)C2CCCCC2)c1` [compound 101, (E)-Methyl 3-(3-(N-(4-(N-methylbenzamido)benzyl)cyclohexane-carboxamido)phenyl)acrylate] was tested. Which pEC50 did it give?
Answer: < 5.00

Question: How did the pEC50 turn out when `COC(=O)/C=C/c1cccc(N(Cc2ccc(NCc3ccccc3)cc2)C(=O)C2CCCCC2)c1` [compound 102, (E)-Methyl 3-(3-(N-(4-(benzylamino)benzyl)cyclohexane-carboxamido)phenyl)acrylate] was run?
Answer: 5.00 to 6.00

Question: With `COC(=O)/C=C/c1cccc(N(Cc2ccc(N(C)Cc3ccccc3)cc2)C(=O)C2CCCCC2)c1` [compound 103, (E)-Methyl 3-(3-(N-(4-(benzyl(methyl)amino)benzyl)cyclo-hexanecarboxamido)phenyl)acrylate] as the molecule, how does the pEC50 read?
Answer: < 5.00

target: T1, FXR; assay: In Vitro FXR Assay (PGL3): luciferase reporter in transfected CV-1 cells; type: cell-based; settings: CV-1 cells transfected with hFXR, hRXR, PGL3-ECRE*6-luc; 18 h incubation; luminescence
Experimental: Example B-1: In Vitro FXR Assay (PGL3)
CV-1 cells were seeded at a density of 2,000,000 cells in a T175 flask with DMEM+10% charcoal double-stripped FBS and incubated at 37° C. in a 5% CO2 for 18 h (O/N).
After 18 h of incubation, the medium in the T175 flask was changed with fresh DMEM+10% charcoal super-stripped serum.
To prepare the transfection reaction mixture, the transfection reagent (X-tremeGENE HP from Roche, Cat #06 366 236 001) was added in to a 1.5 mL microcentrifuge tube labelled “A” at a ratio of 1:3 (DNA in transfection reagent in μL). OptiMEM medium (Life Technologies, Cat #31985-062) was added accordingly to provide a total volume of 1 mL. The transfection reaction mixture was then briefly vortexed and incubated at room temperature for 5 minutes.
In a separate 1.5 mL microcentrifuge tube labelled “B”, 100 μL OptiMEM and plasmids XPD90Gal pCMXhFXRfl, pCMXhRXRfl+PGL3-ECRE*6-luc+CMX-YFP in the ratio 2 μg:2 μg:18 μg:3 μg were added. This microcentrifuge tube “B” was then briefly vortexed and incubated at room temperature for 5 minutes.
The total volume in tube labelled “A” was then transferred in to tube labelled “B.” The mixture was then briefly vortexed and the transfection:DNA complex was then incubated for about 15-20 minutes at room temperature.
Following incubation, the transfection reagent/DNA mixture complex was then added to cells in the T175 flask and the cells were incubated at […] (O/N) at 37° C. in 5% CO2.
In a 96 well plate, a half logarithmic serial dilution was prepared. OptiMEM was used as the diluent. Using any of one of the compounds described herein, a compound stock solution of 10 mM was prepared. An initial 1:100 dilution was made into the first well for a final concentration of 100 μM. The final concentrations in the 96-well plate was prepared by using a multichannel pipette to transfer 5 μL of the diluted compound to 384-well plate in quadruplicate.
Cells in T175 flask were trypsinized and cells were resuspended in 40 mL phenol red free DMEM+10% charcoal super-stripped FBS. Typically, one T175 flask was sufficient to seed two 384 well plates. CV-1 cells were seeded at 45 μL cell suspension/well using a multi-channel pipet or a 384 multidrop dispenser. The cells were then incubated for 18 hrs, overnight.
After removing the plates from the incubator, the medium was flicked out of plate and 384 well plate was turned upside down onto paper towel. The remaining medium was gently tapped out. 15 μL lysis buffer was then added to each well using a multichannel pipet or a 384 well multi-drop dispenser. After incubation for 10 minutes at room temperature on shaker, 30 μL Luciferase buffer was added to each well. Luminescence counts were taken immediately using the Perkin Elmer Envision.
The ability of the compounds disclosed herein to […] FXR activity was quantified and the respective EC50 value was determined. Fex=fexaramine.

Question: Which “Cmpd/Fex (ratio of the EC50 for the test compound relative to the EC50 of the Fexaramine control)” value does the source give for `COC(=O)/C=C/c1cccc(N(Cc2ccc(-c3ccc(N(C)C)cc3)cc2)C(=O)C(C)(C)C)c1` [compound 1, (E)-Methyl 3-(3-(N-((4′-(dimethylamino)-[1,1′-biphenyl]-4-yl)methyl)pivalamido)phenyl)acrylate] here?
Answer: +++ (‘+++’ means Cmpd/Fex < 10)

Question: With `COC(=O)/C=C/c1cccc(N(Cc2ccc(N3CCN(C)CC3)cc2)C(=O)C2CCCCC2)c1` [compound 76, (E)-Methyl 3-(3-(N-(4-(4-methylpiperazin-1-yl)benzyl)cyclohexanecarboxamido)phenyl) acrylate] as the molecule, how does the “Cmpd/Fex (ratio of the EC50 for the test compound relative to the EC50 of the Fexaramine control)” value read?
Answer: + (‘+’ means Cmpd/Fex > 100)

Question: With `COC(=O)/C=C/c1cccc(N(Cc2ccc(N3CCNCC3)cc2)C(=O)C2CCCCC2)c1` [compound 79, (E)-Methyl 3-(3-(N-(4-(piperazin-1-yl)benzyl)cyclohexanecarboxamido)phenyl) acrylate] as the molecule, how does the “Cmpd/Fex (ratio of the EC50 for the test compound relative to the EC50 of the Fexaramine control)” value read?
Answer: + (‘+’ means Cmpd/Fex > 100)
